Literature values in patent US20170007630A1, “COMPOSITION AND METHOD OF DELIVERY OF L-ARABINOSE AND SELECT COMPOUNDS” (priority 2011, published 2017).

Key:
[1] = one study conducted in China
[2] = target: T1, sucrase (Homo sapiens, UniProt P14410); conditions: compared with sucrose
[3] = target: T1, sucrase

T1 sequence (P14410 whole entry): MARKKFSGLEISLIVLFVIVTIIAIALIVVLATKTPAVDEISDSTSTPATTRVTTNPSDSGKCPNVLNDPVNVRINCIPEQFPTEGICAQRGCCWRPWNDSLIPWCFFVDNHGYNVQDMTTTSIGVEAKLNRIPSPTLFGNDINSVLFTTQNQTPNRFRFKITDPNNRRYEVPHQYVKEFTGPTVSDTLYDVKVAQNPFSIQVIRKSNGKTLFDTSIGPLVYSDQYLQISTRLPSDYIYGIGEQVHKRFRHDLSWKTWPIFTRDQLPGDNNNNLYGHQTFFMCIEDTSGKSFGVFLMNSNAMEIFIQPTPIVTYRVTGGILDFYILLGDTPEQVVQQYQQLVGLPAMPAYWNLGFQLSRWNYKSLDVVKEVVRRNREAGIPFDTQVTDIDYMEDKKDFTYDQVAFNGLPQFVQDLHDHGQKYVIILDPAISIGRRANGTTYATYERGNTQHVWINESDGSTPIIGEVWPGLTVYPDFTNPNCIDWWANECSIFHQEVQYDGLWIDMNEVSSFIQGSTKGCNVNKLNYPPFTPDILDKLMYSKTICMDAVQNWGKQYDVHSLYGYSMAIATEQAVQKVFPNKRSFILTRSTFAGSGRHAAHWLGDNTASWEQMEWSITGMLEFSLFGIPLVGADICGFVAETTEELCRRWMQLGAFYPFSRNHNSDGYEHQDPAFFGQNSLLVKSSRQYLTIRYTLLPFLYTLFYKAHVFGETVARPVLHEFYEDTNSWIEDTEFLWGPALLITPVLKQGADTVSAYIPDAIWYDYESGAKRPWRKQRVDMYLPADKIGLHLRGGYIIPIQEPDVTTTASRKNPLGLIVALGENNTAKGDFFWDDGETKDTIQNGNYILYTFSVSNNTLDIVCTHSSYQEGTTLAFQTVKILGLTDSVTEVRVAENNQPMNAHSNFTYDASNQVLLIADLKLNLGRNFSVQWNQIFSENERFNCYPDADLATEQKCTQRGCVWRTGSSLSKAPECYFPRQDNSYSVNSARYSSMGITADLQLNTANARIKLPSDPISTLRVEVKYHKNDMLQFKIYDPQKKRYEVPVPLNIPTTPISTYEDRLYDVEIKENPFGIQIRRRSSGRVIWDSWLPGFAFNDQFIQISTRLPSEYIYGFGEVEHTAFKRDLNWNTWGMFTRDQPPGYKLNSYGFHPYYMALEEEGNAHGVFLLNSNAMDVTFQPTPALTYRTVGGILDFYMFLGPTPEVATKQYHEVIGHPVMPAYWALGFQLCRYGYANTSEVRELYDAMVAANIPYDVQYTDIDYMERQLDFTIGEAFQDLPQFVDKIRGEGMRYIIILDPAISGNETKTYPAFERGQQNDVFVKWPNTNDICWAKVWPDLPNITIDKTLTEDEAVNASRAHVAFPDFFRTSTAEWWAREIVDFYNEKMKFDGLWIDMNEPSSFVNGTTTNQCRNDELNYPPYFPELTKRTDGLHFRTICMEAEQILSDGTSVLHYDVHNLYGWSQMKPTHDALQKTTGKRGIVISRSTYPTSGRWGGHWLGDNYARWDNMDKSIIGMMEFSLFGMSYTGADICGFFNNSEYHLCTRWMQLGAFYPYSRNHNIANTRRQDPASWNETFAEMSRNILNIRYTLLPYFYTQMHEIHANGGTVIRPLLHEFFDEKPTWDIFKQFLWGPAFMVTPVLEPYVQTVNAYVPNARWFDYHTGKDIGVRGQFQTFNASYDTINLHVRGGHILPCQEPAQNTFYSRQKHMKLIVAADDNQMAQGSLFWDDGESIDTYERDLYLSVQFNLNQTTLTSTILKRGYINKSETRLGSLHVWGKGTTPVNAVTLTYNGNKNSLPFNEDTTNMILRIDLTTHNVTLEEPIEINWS

participants that experienced discomforts such as loose bowel or diarrhea [1]: about 40% | affinity to sucrase relative to sucrose [2]: approximately 5 times | parts of sucrose inhibited from breakdown per one part of L-arabinose [3]: up to 20 parts
Structure (SMILES): O=C[C@H](O)[C@@H](O)[C@@H](O)CO [L-arabinose]
